Tests used:
[1] = test system: deoxymyoglobin (deoxy-Mb); test: Release of CO from metal carbonyl complexes (myoglobin assay / CO electrode); type: physicochemical
Method: The release of CO from metal carbonyl complexes was assessed spectrophotometrically by measuring the conversion of deoxymyoglobin (deoxy-Mb) to carbonmonoxymyoglobin (MbCO). MbCO has a distinctive absorption spectrum between 500 and 600 nm, and changes at 540 nm were used to quantify the amount of CO liberated. Myoglobin solutions were prepared freshly by dissolving a known concentration of the protein in phosphate buffer, which was also made up to a known concentration and pH. Sodium dithionite (0.1%) was added to convert myoglobin to deoxy-Mb prior to each reading. The CORM was dissolved in the solvent specified in the solubility column of the table of FIGS. 1a-1k, before addition to the myoglobin solution.
The release of CO from metal carbonyl complexes was also detected using a prototype electrode purchased from World Precision Instrument (Stevenage, Herts, UK). The CO electrode is a membrane-covered amperometric sensor which has been designed on a basic operating principle similar to the nitric oxide (NO) sensor. In fact, the CO sensor can be connected to the ISO-NO Mark II meter for detection of the current signals providing that the poise potential is set to a different value (900 mV for CO as opposed to 860 mV for NO). In principle, CO diffuses through the gas permeable membrane and is then oxidized to CO2 on the working electrode. This oxidation will create a current whose magnitude can be related directly to the concentration of CO in solution. The CO sensor was used to generate standard curves and calculate the rates of CO release from a CORM compound at different pHs and temperatures. The electrode was immersed into the solutions at different pHs and equilibrated for 30 min prior to addition of the CORM compound. The experiments were maintained at the desired temperature using a Grant W6 thermostat (Cambridge). This method is described in the applicants' earlier publication WO 2005/114161.
Slow release rates (half-life >200 minutes) are indicated for the comparative compounds, while rapid release rates (half-life <50 minutes) were found for compounds within the invention. […] Compounds having three carbonyl ligands released CO slowly, as did compounds in which a carbon or a nitrogen atom of the ligand bond to the manganese. Slow release is also found for the compound (CORM 325) having Mn—Mn bonding.

isolated aortic rings = test: Vasorelaxation of pre-contracted isolated rat aortic rings; design: species or system Sprague-Dawley rats; settings: for Contraction of pre-contracted aortic rings after addition of compound: varying concentrations, FIG. 3(a), 3(b)
Method: (3) The experiments using the isolated aortic rings were conducted to assess the extent of vasorelaxation. One hundred micromolar (100 μM) of each compound were added to a pre-contracted ring and vasorelaxation was assessed as a percentage of the initial contraction, which was expressed as good (+) or very good (++).
Vasodilatation data for CORM 371 and CORM 376 was measured as described previously by the inventors in their earlier publication, WO 2004/045599. This is described in more detail below.
The method for the preparation of isolated aortic rings has been previously described (Sammut et al Br J Pharmacol 125: 1437-1444, 1998; Motterlini et al Circ Res 90: E17-E24, 2002). The thoracic aorta was isolated from Sprague-Dawley rats (350-450 g) and flushed with cold Krebs-Henseleit buffer (4° C., pH 7.4) containing (in mM): 118 NaCl, 4.7 KCl, […], 1.2 MgSO4.7H2O, 22 NaHCO3, 11 Glucose, 0.03 K^+EDTA, 2.5 CaCl2 and supplemented with 10 μM indomethacin. Each aorta was trimmed of adventitial tissue and ring, sections (˜3 mm length) were produced from the mid aortic segment. The rings were then mounted between two stainless steel hooks in 9-mL organ baths containing Krebs-Henseleit buffer which was maintained at 37° C. and continuously gassed with 95% O2-5% CO2. One hook was attached to a Grass FT03 isometric force transducer whilst the other was anchored to a sledge for regulation of the resting tension of the aortic ring. The rings were initially equilibrated for 30 min under a resting tension of 2 g which was previously determined to be optimal. Continuous recording of tension was made on a Grass 7D polygraph (Grass Instruments, Quincy, Mass.) in combination with a Biopac MP100 system using AcqKnowledge™ software (Linton Instruments, Norfolk, UK). Before each protocol was carried out, rings were contracted with a standard dose of KCl (100 mM) in order to provide an internal reference and to control for variability in contractile responsiveness between tissues. The relaxation response to CORM-3 (25 μM) in the presence or absence of YC-1 (5 μM final concentration, 30 min pre-incubation) was assessed in aortic rings pre-contracted with phenylephrine (1 μmol/L).

Solubility information = type: physicochemical
Text: Uncharged complexes, such as CORM 378, can be made water soluble by the presence of suitable ligands.

RAW264.7 macrophages = test: Anti-inflammatory action in LPS-stimulated RAW264.7 macrophages (nitrite, Griess method); type: cell-based, mouse; settings: 24 h, 10, 50 or 100 μM compound, LPS 1 μg/ml
Method: (2) The anti-inflammatory action was measured in RAW264.7 macrophages incubated for 24 h with 10, 50 or 100 μM of each compound in the presence or absence of Lipopolysaccharide (LPS) (1 μg/ml). Nitrite was used as an indicator of inflammation. * indicates a reduction in inflammation detected at 100 μM; ** indicates a reduction in inflammation detected at 50 μM; *** indicates a reduction in inflammation detected at 10 μM; “None” indicates there was no effect of the compound on inflammation; N.P. indicates assay not performed.
Murine RAW264.7 monocyte macrophages were purchased from the European Collection of Cell Cultures (Salisbury, Wiltshire, UK) and cultured in Dulbecco's modified Eagle's medium (DMEM) supplemented' with 10% fetal bovine serum, 2 mM L-glutamine, 100 units ml^−1 penicillin and 0.1 mg ml^−1 streptomycin. […] Macrophages were exposed for 24 hr to LPS (1 μg ml^−) in the presence or absence of CORMs (10, 50 and 100 μM) and nitrite levels and cytotoxicity were determined at the end of the incubation. Nitrite levels were determined using the Griess method as previously described (Foresti et al. J. Biol. Chem. 272, 18411-18417, (1997)). […] The Griess reagent was added to each well to begin the reaction, the plate was shaken for 10 min and the absorbance read at 550 nm on a Molecular Devices VERSAmax plate reader. […]

O=[C]=[Mn]([I])(=[C]=O)(=[C]=O)(=[C]=O)=[C]=O [CORM 310, [MnI(CO)5]]
CO release rate (in words) [1]: much longer CO release times

[C-]#[O+].[C-]#[O+].[C-]#[O+].[C-]#[O+].[C-]#[O+].[C-]#[O+].[C-]#[O+].[C-]#[O+].c1ccc([PH]([Mn][Mn][PH](c2ccccc2)(c2ccccc2)c2ccccc2)(c2ccccc2)c2ccccc2)cc1 [CORM 325, [Mn(CO)4(PPh3)]2]
CO release rate (in words) [1]: Slow release

CC(=O)[S-].CC(=O)[S-].C[N+](C)(C)C.[C-]#[O+].[C-]#[O+].[C-]#[O+].[C-]#[O+].[Mn+] [CORM-371, [Me4N][Mn(CO)4(thioacetate)2]]
Vasodilator activity in the aortic rings model (isolated aortic rings): good vasodilators
Contraction of pre-contracted aortic rings after addition of compound (isolated aortic rings): concentration-dependent decrease in contraction

[K][(OC)3Mn(μ-OCOCH3)3Mn(CO)3] [CORM-376]
Vasodilator activity in the aortic rings model (isolated aortic rings): good vasodilators
Dilatation in presence of glibenclimide (inhibition of ATP-dependent K+ channels) (isolated aortic rings; glibenclimide at two different concentrations, FIG. 3(c)): did not affect
Contraction of pre-contracted aortic rings after addition of compound (isolated aortic rings): concentration-dependent decrease in contraction
Vasorelaxation in presence of guanylate cyclase inhibitor ODQ (isolated aortic rings; with ODQ, FIG. 3(c)): significantly prevented

OCCN(CCO)C(=S)[S-].[C-]#[O+].[C-]#[O+].[C-]#[O+].[C-]#[O+].[Mn+] [CORM 378, Mn(CO)4(η^2-S2CN{CH2CH2OH}2)]
Solubility in water (Solubility information): water soluble

[Me4N][Mn(CO)4(Malonate)] [CORM 350]
CO release rate (in words) [1]: rapid CO release
Anti-inflammatory action (nitrite as indicator of inflammation) (RAW264.7 macrophages): did not do so

C[N+](C)(C)C.O=C([O-])c1ccccc1.O=C([O-])c1ccccc1.O=C([O-])c1ccccc1.[C-]#[O+].[C-]#[O+].[C-]#[O+].[C-]#[O+].[C-]#[O+].[C-]#[O+].[Mn+].[Mn+] [CORM 379, [Me4N][Mn2(CO)6(benzoate)3]]
CO release rate (in words) [1]: rapid CO release
Anti-inflammatory action (nitrite as indicator of inflammation) (RAW264.7 macrophages): did not do so

[C-]#[O+].[C-]#[O+].[C-]#[O+].[C-]#[O+].[C-]#[O+].[Cl][Mn] [CORM 318, [MnCl(CO)5]]
CO release rate (in words) [1]: much longer CO release times

O=[C]=[Mn]([Br])(=[C]=O)(=[C]=O)(=[C]=O)=[C]=O [CORM 309, [MnBr(CO)5]]
CO release rate (in words) [1]: much longer CO release times

From patent publication US20100105770A1, “Therapeutic delivery of carbon monoxide” (priority 2006, published 2010)
